According to patent US9133148B2, “Carbamate compounds and of making and using same” (Abide Therapeutics, Inc., priority 2012, dated 2015):

Legend:
Type in all cases: biochemical
ABHD6 [1] = target: T1, ABHD6 (Mus musculus (Mouse), UniProt Q8R2Y0); assay: Competitive ABPP, % inhibition at 1 uM, ABHD6
Protocol: (§1) In Vitro Competitive Activity-Based Protein Profiling.
(§2) Proteomes (mouse brain membrane fraction or cell lysates) ([…], 1.0 mg/mL total protein concentration) were preincubated with varying concentrations of inhibitors at 37° C. After 30 min, FP-Rh (1.0 μL, 50 μM in DMSO) was added and the mixture was incubated for another 30 min at 37° C. Reactions were quenched with SDS loading buffer (50 μL—4×) and run on SDS-PAGE.

MAGL [2] = target: T2, MAGL (Mus musculus (Mouse), UniProt O35678); assay: Competitive ABPP, % inhibition at 1 uM, MAGL
Protocol: as §1, §2

FAAH [3] = target: T3, FAAH (Mus musculus (Mouse), UniProt O08914); assay: Competitive ABPP, % inhibition at 1 uM, FAAH
Protocol: as §1
as §2, with “SDS-PAGE. Following gel imaging, serine hydrolase activity was determined by measuring fluorescent intensity of gel bands corresponding to MAGL, ABHD6 and FAAH using ImageJ 1.43u software.” for “SDS-PAGE.”

FAAH [4] = target: T3, FAAH; assay: In vitro competitive activity-based protein profiling (FP-Rh), mouse FAAH; conditions: mouse brain membrane proteome
Protocol: as §1, §2

ABHD6 [5] = target: T1, ABHD6; assay: In vitro competitive activity-based protein profiling (FP-Rh), mouse ABHD6; conditions: mouse brain membrane proteome
Protocol: as §1, §2

MAGL [6] = target: T2, MAGL; assay: In vitro competitive activity-based protein profiling (FP-Rh), mouse MAGL; conditions: mouse brain membrane proteome
Protocol: as §1, §2

T2 sequence (O35678 whole entry): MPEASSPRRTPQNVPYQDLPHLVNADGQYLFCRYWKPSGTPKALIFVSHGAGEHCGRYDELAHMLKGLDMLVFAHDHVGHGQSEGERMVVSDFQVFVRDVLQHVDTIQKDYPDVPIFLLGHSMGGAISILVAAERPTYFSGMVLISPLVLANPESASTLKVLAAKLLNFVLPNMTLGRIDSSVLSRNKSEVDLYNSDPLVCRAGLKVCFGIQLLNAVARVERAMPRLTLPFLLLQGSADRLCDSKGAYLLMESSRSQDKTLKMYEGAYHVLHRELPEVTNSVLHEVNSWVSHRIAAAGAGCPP
T1 sequence (Q8R2Y0 whole entry): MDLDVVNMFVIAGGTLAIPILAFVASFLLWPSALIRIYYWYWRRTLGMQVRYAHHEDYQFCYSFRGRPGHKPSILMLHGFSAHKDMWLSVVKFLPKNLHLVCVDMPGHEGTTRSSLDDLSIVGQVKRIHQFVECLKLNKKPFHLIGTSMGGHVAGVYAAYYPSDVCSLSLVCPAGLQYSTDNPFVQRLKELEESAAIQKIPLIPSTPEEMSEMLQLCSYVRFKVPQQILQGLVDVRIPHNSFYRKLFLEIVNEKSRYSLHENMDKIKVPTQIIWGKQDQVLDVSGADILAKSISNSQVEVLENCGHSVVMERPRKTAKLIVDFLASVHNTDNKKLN
T3 sequence (O08914 whole entry): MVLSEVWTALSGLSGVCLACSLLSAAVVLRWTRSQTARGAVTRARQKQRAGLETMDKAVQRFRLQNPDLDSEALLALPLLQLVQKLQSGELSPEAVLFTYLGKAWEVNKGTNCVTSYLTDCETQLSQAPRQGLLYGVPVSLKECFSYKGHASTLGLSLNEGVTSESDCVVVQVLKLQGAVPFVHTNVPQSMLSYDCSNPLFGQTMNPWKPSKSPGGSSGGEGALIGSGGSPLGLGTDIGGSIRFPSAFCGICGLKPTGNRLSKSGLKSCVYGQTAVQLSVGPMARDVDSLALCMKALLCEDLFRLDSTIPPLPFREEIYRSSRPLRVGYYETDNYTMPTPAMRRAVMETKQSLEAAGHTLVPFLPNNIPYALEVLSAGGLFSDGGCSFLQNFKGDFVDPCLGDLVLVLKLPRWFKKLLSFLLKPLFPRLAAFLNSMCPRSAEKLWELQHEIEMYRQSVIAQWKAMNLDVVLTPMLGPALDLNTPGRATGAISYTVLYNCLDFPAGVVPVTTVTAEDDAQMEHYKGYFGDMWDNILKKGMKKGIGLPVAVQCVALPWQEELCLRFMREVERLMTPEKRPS

Compound | IC50 (FAAH [4]; competitive ABPP (Table 7)) | IC50 (ABHD6 [5]; competitive ABPP (Table 7)) | IC50 (MAGL [6]; competitive ABPP (Table 7)) | further results
Cc1cc(-c2cccnc2C)ccc1CN1CCN(C(=O)OC(C(F)(F)F)C(F)(F)F)CC1 [Example 11s, 1,1,1,3,3,3-hexafluoropropan-2-yl 4-[[2-methyl-4-(2-methylpyridin-3-yl)phenyl]methyl]piperazine-1-carboxylate] | – | – | – | inhibition at 1 µM (ABHD6 [1]): 25 to 75%; inhibition at 1 µM (MAGL [2]): 25 to 75%; inhibition at 1 µM (FAAH [3]): < 25%
Cc1cccc(-c2ccc(CN3CCN(C(=O)OC(C(F)(F)F)C(F)(F)F)CC3)nc2C)c1 [Example 11ad, 1,1,1,3,3,3-hexafluoropropan-2-yl 4-[[6-methyl-5-(3-methylphenyl)pyridin-2-yl]methyl]piperazine-1-carboxylate] | – | – | – | inhibition at 1 µM (ABHD6 [1]): 25 to 75%; inhibition at 1 µM (MAGL [2]): > 75%; inhibition at 1 µM (FAAH [3]): < 25%
O=C(OC(C(F)(F)F)C(F)(F)F)N1CCN(Cc2c(Cl)cccc2N2CCOCC2)CC1 [Example 9ac, 1,1,1,3,3,3-hexafluoropropan-2-yl 4-[[2-chloro-6-(morpholin-4-yl)phenyl]methyl]piperazine-1-carboxylate] | – | – | – | inhibition at 1 µM (FAAH [3]): < 25%
Cn1ncc2cc(C(c3ccc4c(cnn4C)c3)N3CCN(C(=O)OC(C(F)(F)F)C(F)(F)F)CC3)ccc21 [Example 2k, 1,1,1,3,3,3-hexafluoropropan-2-yl 4-(bis(1-methyl-1H-indazol-5-yl)methyl)piperazine-1-carboxylate] | – | – | – | inhibition at 1 µM (FAAH [3]): < 25%
CC(=O)N[C@H]1CCN(c2cc(Cl)ccc2CN2CCN(C(=O)OC(C(F)(F)F)C(F)(F)F)CC2)C1 [Example 9bb, (S)-1,1,1,3,3,3-hexafluoropropan-2-yl 4-(2-(3-acetamidopyrrolidin-1-yl)-4-chlorobenzyl)piperazine-1-carboxylate] | > 10000 nM | > 1000 nM | < 100 nM | –
O=C(OC(C(F)(F)F)C(F)(F)F)N1CCN(Cc2ccc(Cl)cc2)CC1 [Example 9o, 1,1,1,3,3,3-hexafluoropropan-2-yl 4-(4-chlorobenzyl)piperazine-1-carboxylate] | – | – | – | inhibition at 1 µM (FAAH [3]): < 25%
O=C(OC(C(F)(F)F)C(F)(F)F)N1CCN(Cc2ccc(N3CCCC3)c(F)c2)CC1 [Example 9aa, 1,1,1,3,3,3-hexafluoropropan-2-yl 4-(3-fluoro-4-(pyrrolidin-1-yl)benzyl)piperazine-1-carboxylate] | > 10000 nM | 100 to 1000 nM | 100 to 1000 nM | –
O=C(OC(C(F)(F)F)C(F)(F)F)N1CCN(Cc2ccc(N3CCCC3)cc2OC(F)(F)F)CC1 [Example 9ap, 1,1,1,3,3,3-hexafluoropropan-2-yl 4-(4-(pyrrolidin-1-yl)-2-(trifluoromethoxy)benzyl)piperazine-1-carboxylate] | > 10000 nM | > 1000 nM | 100 to 1000 nM | –
CC(=O)N[C@@H]1CCN(c2cc(Cl)ccc2CN2CCN(C(=O)OC(C(F)(F)F)C(F)(F)F)CC2)C1 [Example 9ba, (R)-1,1,1,3,3,3-hexafluoropropan-2-yl 4-(2-(3-acetamidopyrrolidin-1-yl)-4-chlorobenzyl)piperazine-1-carboxylate] | > 10000 nM | > 1000 nM | < 100 nM | –
Cc1cc(N2CCCC2)ccc1CN1CCN(C(=O)OC(C(F)(F)F)C(F)(F)F)CC1 [Example 9u, 1,1,1,3,3,3-hexafluoropropan-2-yl 4-(2-methyl-4-(pyrrolidin-1-yl)benzyl)piperazine-1-carboxylate] | > 6250 nM | > 1000 nM | 100 to 1000 nM | –
O=C(OC(C(F)(F)F)C(F)(F)F)N1CCN(Cc2ccc(N3CCOCC3)cc2F)CC1 [Example 9a, 1,1,1,3,3,3-hexafluoropropan-2-yl 4-(2-fluoro-4-morpholinobenzyl)piperazine-1-carboxylate] | > 10000 nM | 100 to 1000 nM | 100 to 1000 nM | –
O=C(OC(C(F)(F)F)C(F)(F)F)N1CCN(Cc2ccc(Cl)cc2-n2cc(Cl)cn2)CC1 [Example 9ai, 1,1,1,3,3,3-hexafluoropropan-2-yl 4-(4-chloro-2-(4-chloro-1H-pyrazol-1-yl)benzyl)piperazine-1-carboxylate] | > 10000 nM | 100 to 1000 nM | < 100 nM | –
CC(C)(C)OC(=O)N1CCN(C(=O)OC(C(F)(F)F)C(F)(F)F)CC1 [Example 3d, 1-tert-butyl 4-(1,1,1,3,3,3-hexafluoropropan-2-yl)piperazine-1,4-dicarboxylate] | – | – | – | IC50 (FAAH [4]; competitive ABPP): > 10000 nM; IC50 (ABHD6 [5]; competitive ABPP): > 1000 nM; IC50 (MAGL [6]; competitive ABPP): > 1000 nM
O=C(OC(C(F)(F)F)C(F)(F)F)N1CCN(Cc2ccc(N3CCOCC3)c(Cl)c2)CC1 [Example 9h, 1,1,1,3,3,3-hexafluoropropan-2-yl 4-(3-chloro-4-morpholinobenzyl)piperazine-1-carboxylate] | > 10000 nM | 100 to 1000 nM | 100 to 1000 nM | –
O=C(O)C(OC(=O)N1CCN(C(c2ccc(Cl)cc2)c2ccc(Cl)cc2)CC1)C(F)(F)F (stereo not drawn) [Example 6i, 2-((4-(bis(4-chlorophenyl)methyl)piperazine-1-carbonyl)oxy)-3,3,3-trifluoropropanoic acid] | – | – | – | IC50 (FAAH [4]; competitive ABPP): > 10000 nM; IC50 (ABHD6 [5]; competitive ABPP): > 1000 nM; IC50 (MAGL [6]; competitive ABPP): > 1000 nM
O=C(OC(C(F)(F)F)C(F)(F)F)N1CCN(Cc2cccc(Cl)c2C(=O)N2CCCC2)CC1 [Example 9bg, 1,1,1,3,3,3-hexafluoropropan-2-yl 4-(3-chloro-2-(pyrrolidine-1-carbonyl)benzyl)piperazine-1-carboxylate] | > 10000 nM | > 1000 nM | 100 to 1000 nM | –
O=C(OC(C(F)(F)F)C(F)(F)F)N1CCN(Cc2cccc(N3CCOCC3)c2)CC1 [Example 9ah, 1,1,1,3,3,3-hexafluoropropan-2-yl 4-(3-morpholinobenzyl)piperazine-1-carboxylate] | > 10000 nM | < 100 nM | < 100 nM | –
CC(C)c1cc(N2CCCC2)ccc1CN1CCN(C(=O)OC(C(F)(F)F)C(F)(F)F)CC1 [Example 9au, 1,1,1,3,3,3-hexafluoropropan-2-yl 4-(2-isopropyl-4-(pyrrolidin-1-yl)benzyl)piperazine-1-carboxylate] | > 10000 nM | > 1000 nM | > 1000 nM | –
Cc1ccc(CN2CCN(C(=O)OC(C(F)(F)F)C(F)(F)F)CC2)cc1 [Example 9w, 1,1,1,3,3,3-hexafluoropropan-2-yl 4-(4-methylbenzyl)piperazine-1-carboxylate] | > 1250 nM | > 1000 nM | < 100 nM | –
O=C(OC(C(F)(F)F)C(F)(F)F)N1CCN(Cc2ccc(Br)cc2Oc2ccccc2)CC1 [Example 9b, 1,1,1,3,3,3-hexafluoropropan-2-yl 4-(4-bromo-2-phenoxybenzyl)piperazine-1-carboxylate] | – | – | – | IC50 (FAAH [4]; competitive ABPP): > 10000 nM; IC50 (ABHD6 [5]; competitive ABPP): 100 to 1000 nM; IC50 (MAGL [6]; competitive ABPP): < 100 nM
O=C(OC(C(F)(F)F)C(F)(F)F)N1CCN(Cc2cccc(F)c2N2CCCC2)CC1 [Example 9as, 1,1,1,3,3,3-hexafluoropropan-2-yl 4-(3-fluoro-2-(pyrrolidin-1-yl)benzyl)piperazine-1-carboxylate] | > 10000 nM | > 1000 nM | 100 to 1000 nM | –
COc1cc(-c2ccccc2)ccc1CN1CCN(C(=O)OC(C(F)(F)F)C(F)(F)F)CC1 [Example 11j, 1,1,1,3,3,3-hexafluoropropan-2-yl 4-[(2-methoxy-4-phenylphenyl)methyl]piperazine-1-carboxylate] | > 10000 nM | > 1000 nM | < 100 nM | –
O=C(OC(C(F)(F)F)C(F)(F)F)N1CCN(Cc2ccc(C(=O)N3CCC3)cc2Cl)CC1 [Example 9be, 1,1,1,3,3,3-hexafluoropropan-2-yl 4-(4-(azetidine-1-carbonyl)-2-chlorobenzyl)piperazine-1-carboxylate] | > 10000 nM | 100 to 1000 nM | 100 to 1000 nM | –
O=C(OC(C(F)(F)F)C(F)(F)F)N1CCN(Cc2ccc(N3CCOCC3)cc2Cl)CC1 [Example 9e, 1,1,1,3,3,3-hexafluoropropan-2-yl 4-(2-chloro-4-morpholinobenzyl)piperazine-1-carboxylate] | > 5000 nM | 100 to 1000 nM | 100 to 1000 nM | –
O=C(OC(C(F)(F)F)C(F)(F)F)N1CCN(Cc2ccc(-n3cccn3)c(F)c2)CC1 [Example 9az, 1,1,1,3,3,3-hexafluoropropan-2-yl 4-(3-fluoro-4-(1H-pyrazol-1-yl)benzyl)piperazine-1-carboxylate] | > 10000 nM | 100 to 1000 nM | 100 to 1000 nM | –
O=C(OC(C(F)(F)F)C(F)(F)F)N1CCN(Cc2ccc(N3CCCC3)cc2)CC1 [Example 9g, 1,1,1,3,3,3-hexafluoropropan-2-yl 4-(4-(pyrrolidin-1-yl)benzyl)piperazine-1-carboxylate] | > 10000 nM | > 1000 nM | 100 to 1000 nM | –
O=C(OC(C(F)(F)F)C(F)(F)F)N1CCN(Cc2ccc(N3CCOCC3)cc2)CC1 [Example 9f, 1,1,1,3,3,3-hexafluoropropan-2-yl 4-(4-morpholinobenzyl)piperazine-1-carboxylate] | > 10000 nM | 100 to 1000 nM | 100 to 1000 nM | –
CN(C)C(=O)c1cc(-c2ccccc2)ccc1CN1CCN(C(=O)OC(C(F)(F)F)C(F)(F)F)CC1 [Example 11x, 1,1,1,3,3,3-hexafluoropropan-2-yl 4-[[2-(dimethylcarbamoyl)-4-phenylphenyl]methyl]piperazine-1-carboxylate] | > 10000 nM | > 1000 nM | 100 to 1000 nM | –
